In US20130059295A1 (priority 2011, published 2013):
In brackets after ≈: the same amount, converted by molar mass.

Key:
[1] = test system: fatty acid biosensor plasmids pLR-rfp and pAR-rfp in fadE knockout DH1 E. coli cells; experiment: microbe, parasite or virus in culture; assay type: cell-based
[2] = test system: fatty acid biosensor plasmids in DH1 fadD knockout strain; assay type: cell-based, E. coli; conditions: up to the addition of 1 mM oleic acid
[3] = test system: fatty acid sensing strain (pBARk-RFP and pE8a-fadR in E. coli); experiment: Fatty acid biosensor pBARk-RFP with pE8a-fadR, oleic acid added to growth media (Example 3); assay type: cell-based; conditions: plasmid pBARk-RFP, over a broad range of oleic acid concentration, 12 hours
FadR = FadR (Escherichia coli, UniProt P0A8V6); conditions: read-out: Kd of FadR binding to oleic acid; cited from earlier work
[4] = test system: E. coli fadBA promoter (PfadBA); conditions: upon the addition of 5 mM oleic acid; cited from earlier work
[5] = cited from earlier work
HucR = conditions: read-out: Kd (apparent), one value printed for the listed ligands; cited from earlier work

Chain of FadR (P0A8V6 whole entry): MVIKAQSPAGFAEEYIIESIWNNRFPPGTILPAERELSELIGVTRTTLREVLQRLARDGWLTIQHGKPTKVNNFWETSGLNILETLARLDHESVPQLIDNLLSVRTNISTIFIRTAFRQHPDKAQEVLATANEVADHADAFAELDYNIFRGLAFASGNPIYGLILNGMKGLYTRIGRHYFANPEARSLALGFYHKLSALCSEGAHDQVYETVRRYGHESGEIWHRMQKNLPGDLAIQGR

| Structure (SMILES) | EC50 ([1]; Escherichia coli, 12 h, read-out: apparent half maximal effective concentration (EC50)) [µM] | fluorescence change upon the addition of oleic acid ([1]; pAR-rfp, fadE knockout DH1 E. coli) [fold] | induction of RFP expression [2] | increase in fluorescence signal [3] | Kd (FadR) [µM] | increased expression level of PfadBA [4] [fold] | solubility limit in aqueous solution [5] [mM] | Kd (HucR) [µM] |
| --- | --- | --- | --- | --- | --- | --- | --- | --- |
| CCCCCCCC/C=C\CCCCCCCC(=O)O [oleic acid] | 35 to 60 | 60 | no induction of RFP expression was detected | more than 50 fold | 5 | 5 | 5 (≈ 1410 µg/mL) | – |
| O=c1[nH]c(=O)c2[nH]c(=O)[nH]c2[nH]1 [uric acid] | – | – | – | – | – | – | – | 11.6 |
| O=C(O)c1ccccc1O [salicylate] | – | – | – | – | – | – | – | 11.6 |
